Measured values as given in patent publication US5262417A, “Antibacterial quinolone compounds” (The Upjohn Company, priority 1991, dated 1993).
In brackets after ≈: the same amount, converted by molar mass. Several values for one entry are separate records, joined by “and”; a condition that tells them apart may be missing. Identical values can stand only once. Like-named read-outs stand apart in the source and are kept apart here.

How the values were obtained:
Format in all cases: cell-based
Pseudomonas aeruginosa = assay: Minimum inhibitory concentration (MIC) by agar dilution; conditions: for MIC: Pseudomonas aeruginosa
Summary of the method: (§1)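 MIC determined by agar dilution: serial compound dilutions were incorporated into Mueller Hinton agar at 47° C, and each organism was applied as 1 μl of a 1:20-diluted 0.5 McFarland suspension.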

Streptococcus pneumoniae = assay: as above; conditions: for MIC: Streptococcus pneumoniae
Summary of the method: as §1

Staphylococcus aureus = assay: as above; conditions: for MIC: Staphylococcus aureus
Summary of the method: as §1

Citerobacter freundii = assay: as above
Summary of the method: as §1

Serratia marcescens = assay: as above; conditions: 20 h, read-out: MINIMUM INHIBITORY CONCENTRATION
Summary of the method: as §1

Klebsiella pneumoniae = assay: as above
Summary of the method: as §1

Streptococcus pyogenes = assay: as above; conditions: for MIC: Streptococcus pyogenes
Summary of the method: as §1

Escherichia coli = assay: as above; conditions: for MIC: Escherichia coli
Summary of the method: as §1

Proteus penneri = assay: as above; conditions: for MIC: Proteus penneri
Summary of the method: as §1

Streptococcus faecalis = assay: as above; conditions: Enterococcus faecalis
Summary of the method: as §1

[1] = system: Staphylococcus epidermidis; assay: as above; conditions: 20 h
Summary of the method: as §1

[2] = system: Acinetobacter calcoaceticus; assay: as above; conditions: for MIC: Acinetobacter calcoaceticus
Summary of the method: as §1

[3] = system: Escherichia coli UC 51 (EC); assay: Dipped disk (disk-diffusion) assay, disks loaded with 0.10 ml; set-up: zone of inhibition: dose or concentration left out as unconfirmed
Procedure: (§2) The effectiveness of the subject compounds on some bacteria were obtained by performing a dipped disk assay. The antibacterial activity of the compounds is determined by the disk-diffusion method. […] They were then applied to the surface of microorganism-seeded agar assay trays, which contained the bacterial strain Pseudomonas aeruginosa UC 95 )PA), Escherichia coli UC 51 (EC) or Staphylococcus aureus UC 80 (SA). The assay trays were incubated overnight under aerobic condition to allow for the growth of the organisms. Zones of growth inhibition due to the action of the antibiotic were then measured to the nearest millimeter.

[4] = system: Staphylococcus aureus UC 80 (SA); assay: as above
Procedure: as §2

[5] = system: Pseudomonas aeruginosa UC 95 (PA); assay: as above; conditions: Pseudomonas aeruginosa, UC95; Conc 1 mg/ml, 0.10 ml per disk; read-out: Growth Inhibition Zone, PA
Procedure: as §2

[6] = 20 h, read-out: MINIMUM INHIBITORY CONCENTRATION

With `O=C(O)c1cn(C2CC2)c2cc(N3CCNCC3)c(F)cc2c1=O` [Ciprofloxacin, reference compound] the “MINIMUM INHIBITORY CONCENTRATION” value (Pseudomonas aeruginosa; Cult No. 9191, MHA) was 0.25 mcg per ml and 0.125 mcg per ml, the MIC (Pseudomonas aeruginosa; 20 h, read-out: MINIMUM INHIBITORY CONCENTRATION, Cult No. 6676, MHA) was 0.5 µg/mL (≈ 1.51 µM) and the MIC (Pseudomonas aeruginosa; 20 h, read-out: MINIMUM INHIBITORY CONCENTRATION, Cult No. 9191, MHA) was 0.25 µg/mL (≈ 0.754 µM). The MIC (Pseudomonas aeruginosa; 20 h, read-out: MINIMUM INHIBITORY CONCENTRATION, Cult No. 12120, MHA) was 0.125 µg/mL (≈ 0.377 µM), the MIC (Pseudomonas aeruginosa; UC6676, 20 h, read-out: Minimum Inhibitory Concentration, Ps. aeruginosa UC 6676, Table CI) was 0.5 µg/mL (≈ 1.51 µM) and the MIC (Pseudomonas aeruginosa; UC9191, 20 h, read-out: Minimum Inhibitory Concentration, Ps. aeruginosa UC 9191, Table CI) was 0.125 µg/mL (≈ 0.377 µM). For the same molecule, the MIC (Pseudomonas aeruginosa; UC12120, 20 h, read-out: Minimum Inhibitory Concentration, Ps. aeruginosa UC 12120, Table CI) was 0.125 µg/mL (≈ 0.377 µM), the “MINIMUM INHIBITORY CONCENTRATION” value (Streptococcus pneumoniae; Cult No. 41, MHA) was 0.5 mcg per ml and 0.25 mcg per ml and the MIC (Streptococcus pneumoniae; 20 h, read-out: MINIMUM INHIBITORY CONCENTRATION, Cult No. 41, MHA) was 0.5 µg/mL (≈ 1.51 µM). The MIC (Streptococcus pneumoniae; UC41, 20 h, read-out: Minimum Inhibitory Concentration, S. pneumoniae UC 41, Table CI) was 0.5 µg/mL (≈ 1.51 µM), the “MINIMUM INHIBITORY CONCENTRATION” value (Staphylococcus aureus; Cult No. 6685, MHA) was 0.25 mcg per ml and 0.125 mcg per ml and the “MINIMUM INHIBITORY CONCENTRATION” value (Staphylococcus aureus; Cult No. 9213, MHA) was 1 mcg per ml and 0.5 mcg per ml. For the same molecule, the “MINIMUM INHIBITORY CONCENTRATION” value (Staphylococcus aureus; Cult No. 9218, MHA) was 0.5 mcg per ml and 0.25 mcg per ml, the MIC (Staphylococcus aureus; 20 h, read-out: MINIMUM INHIBITORY CONCENTRATION, Cult No. 3665, MHA) was 1 µg/mL (≈ 3.02 µM) and the MIC (Staphylococcus aureus; 20 h, read-out: MINIMUM INHIBITORY CONCENTRATION, Cult No. 6685, MHA) was 0.25 µg/mL (≈ 0.754 µM). It also gave an MIC (Staphylococcus aureus; 20 h, read-out: MINIMUM INHIBITORY CONCENTRATION, Cult No. 9213, MHA) of 1 µg/mL (≈ 3.02 µM), an MIC (Staphylococcus aureus; 20 h, read-out: MINIMUM INHIBITORY CONCENTRATION, Cult No. 9218, MHA) of 0.5 µg/mL (≈ 1.51 µM) and an MIC (Staphylococcus aureus; 20 h, read-out: MINIMUM INHIBITORY CONCENTRATION, Cult No. 9271, MHA) of 0.5 µg/mL (≈ 1.51 µM). The MIC (Staphylococcus aureus; UC6685, 20 h, read-out: Minimum Inhibitory Concentration, S. aureus UC 6685, Table CI) was 0.25 µg/mL (≈ 0.754 µM), the MIC (Staphylococcus aureus; UC9213, 20 h, read-out: Minimum Inhibitory Concentration, S. aureus UC 9213, Table CI) was 1 µg/mL (≈ 3.02 µM) and the MIC (Staphylococcus aureus; UC9218, 20 h, read-out: Minimum Inhibitory Concentration, S. aureus UC 9218, Table CI) was 0.5 µg/mL (≈ 1.51 µM). The MIC (Staphylococcus aureus; UC9271, 20 h, read-out: Minimum Inhibitory Concentration, S. aureus UC 9271, Table CI) was 0.5 µg/mL (≈ 1.51 µM), the MIC (Citerobacter freundii; [6]) was less than 0.008 µg/mL and the MIC (Citerobacter freundii; Citrobacter freundii, UC3507, 20 h, read-out: Minimum Inhibitory Concentration) was less than 0.008 µg/mL. For the same molecule, the MIC (Serratia marcescens) was 0.06 µg/mL (≈ 0.181 µM), the MIC (Klebsiella pneumoniae; [6]) was 0.03 µg/mL (≈ 0.0905 µM) and the MIC (Klebsiella pneumoniae; UC12081, 20 h, read-out: Minimum Inhibitory Concentration) was 0.03 µg/mL (≈ 0.0905 µM). For the same molecule, the “MINIMUM INHIBITORY CONCENTRATION” value (Streptococcus pyogenes; Cult No. 152, MHA) was 0.25 mcg per ml and 0.125 mcg per ml, the MIC (Streptococcus pyogenes; 20 h, read-out: MINIMUM INHIBITORY CONCENTRATION, Cult No. 152, MHA) was 0.25 µg/mL (≈ 0.754 µM) and the MIC (Streptococcus pyogenes; UC152, 20 h, read-out: Minimum Inhibitory Concentration, S. pyogenes UC 152, Table CI) was 0.25 µg/mL (≈ 0.754 µM). For the same molecule, the “MINIMUM INHIBITORY CONCENTRATION” value (Escherichia coli; Cult No. 9855, MHA) was 0.015 mcg per ml and 0.03 mcg per ml, the “MINIMUM INHIBITORY CONCENTRATION” value (Escherichia coli; Cult No. 9952, MHA) was 0.015 mcg per ml and < 0.008 mcg per ml and the MIC (Escherichia coli; 20 h, read-out: MINIMUM INHIBITORY CONCENTRATION, Cult No. 6674, MHA) was 0.015 µg/mL (≈ 0.0453 µM). For the same molecule, the MIC (Escherichia coli; 20 h, read-out: MINIMUM INHIBITORY CONCENTRATION, Cult No. 9451, MHA) was 0.015 µg/mL (≈ 0.0453 µM), the MIC (Escherichia coli; 20 h, read-out: MINIMUM INHIBITORY CONCENTRATION, Cult No. 9855, MHA) was 0.015 µg/mL (≈ 0.0453 µM) and the MIC (Escherichia coli; 20 h, read-out: MINIMUM INHIBITORY CONCENTRATION, Cult No. 9952, MHA) was 0.015 µg/mL (≈ 0.0453 µM). For the same molecule, the MIC (Escherichia coli; UC6674, 20 h, E. coli UC 6674, Table CI, read-out: Minimum Inhibitory Concentration) was 0.015 µg/mL (≈ 0.0453 µM), the MIC (Escherichia coli; UC9451, 20 h, E. coli UC 9451, Table CI, read-out: Minimum Inhibitory Concentration) was 0.015 µg/mL (≈ 0.0453 µM) and the MIC (Escherichia coli; UC9855, 20 h, E. coli UC 9855, Table CI, read-out: Minimum Inhibitory Concentration) was 0.015 µg/mL (≈ 0.0453 µM). For the same molecule, the MIC (Escherichia coli; UC9952, 20 h, E. coli UC 9952, Table CI, read-out: Minimum Inhibitory Concentration) was less than 0.008 µg/mL, the “MINIMUM INHIBITORY CONCENTRATION” value (Proteus penneri; Cult No. 9679, MHA) was 0.03 mcg per ml and 0.015 mcg per ml and the MIC (Proteus penneri; 20 h, read-out: MINIMUM INHIBITORY CONCENTRATION, Cult No. 9679, MHA) was 0.015 µg/mL (≈ 0.0453 µM). It also gave an MIC (Proteus penneri; UC9679, 20 h, read-out: Minimum Inhibitory Concentration, P. penneri UC 9679, Table CI) of 0.015 µg/mL (≈ 0.0453 µM), an MIC (Streptococcus faecalis; [6]) of 0.5 µg/mL (≈ 1.51 µM) and an MIC (Streptococcus faecalis; UC9217, 20 h, read-out: Minimum Inhibitory Concentration) of 0.5 µg/mL (≈ 1.51 µM). It also gave an MIC ([1]; read-out: MINIMUM INHIBITORY CONCENTRATION) of 0.125 µg/mL (≈ 0.377 µM), an MIC ([1]; read-out: Minimum Inhibitory Concentration) of 0.06 µg/mL (≈ 0.181 µM) and an MIC ([2]; 20 h, read-out: MINIMUM INHIBITORY CONCENTRATION, Cult No. 12170, MHA) of 0.25 µg/mL (≈ 0.754 µM). The MIC ([2]; UC12170, 20 h, read-out: Minimum Inhibitory Concentration, A. calcoaceticus UC 12170, Table CI) was 0.25 µg/mL (≈ 0.754 µM), the “MINIMUM INHIBITORY CONCENTRATION” value ([2]; Cult No. 12170, MHA) was 0.25 mcg per ml and 0.125 mcg per ml and the “Growth Inhibition Zone, EC” value ([3]; Conc 1 mg/ml, 0.10 ml per disk) was 35 mm. The zone of inhibition ([3]; Escherichia coli, UC51, 0.10 ml per disk, read-out: Growth Inhibition Zone, EC) was 33 mm, the “Growth Inhibition Zone, SA” value ([4]; Conc 1 mg/ml, 0.10 ml per disk) was 30 mm and the zone of inhibition at 1000 µg/mL ([4]; Staphylococcus aureus, UC80, read-out: Growth Inhibition Zone, SA, Conc 1 mg/ml, 0.10 ml per disk) was 28 mm. It also gave a zone of inhibition at 1000 µg/mL [5] of 48 mm.
